# Assays:
# [1] = tested on: Triton-induced hyperlipidemic rats; experiment: Antihyperlipidemic activity in Triton-induced hyperlipidemic rats, method A (24 hours) (Test 2); type: in vivo, rat (male S.D.)
# Procedure: Cholesterol in serum was measured by means of a cholesterol measuring kit (Cholesterol C-Test Wako, manufactured by Wako Junyaku Co., Ltd.), and cholesterol in HDL was measured by means of NC Hi-Set, manufactured by Nippon Chemiphar Co., Ltd. The quantitative analysis of triglyceride was conducted by means of a triglyceride measuring kit (Triglyceride C-II-Test Wako, manufactured by Wako Junyaku Co., Ltd.). Further, the change rate in the following Tables, was calculated by the following equation. Change rate(%)=(A-B/A)×100 where A is the amount of serum lipids (mg/dl) of the control group, and B is the amount of serum lipids (mg/dl) of the group to which the therapeutic agent was administered. The antihyperlipidemic activity in Triton-induced hyperlipidemic rats Male S.D. rats weighing 230-250 g (7 weeks old) were divided into groups of 5 rats each and injected with a physiological saline solution of Triton Wr-1339 in a dose of 250 mg/kg (5 ml/kg) i.v. through the tail vein. […] The test compounds suspended in 0.5% CMC-Na were given to the rats in an amount of 2 ml/kg via stomach tube 1 hour before and 5 hours after (in the case of method A) or 1 hour before and 23 hours after (in the case of method B) the injection of Triton solution. Control rats received the same volume of the vehicle. The animals were fasted during the experimental period. The total cholesterol and triglyceride in the serum were measured.
# [2] = tested on: cholesterol-fed hyperlipidemic rats; experiment: Antihyperlipidemic activity in cholesterol-fed hyperlipidemic rats (Test 3); type: in vivo, rat (male S.D.)
# Procedure: It is administered from once to three times per day. The dose may of course be varied depending upon the age, the weight or the condition of illness of the patient. […] In the following tests, the fractionation of lipoproteins was conducted by a dextran sulfate-MgCl2 precipitation method.
# Cholesterol in serum was measured by means of a cholesterol measuring kit (Cholesterol C-Test Wako, manufactured by Wako Junyaku Co., Ltd.), and cholesterol in HDL was measured by means of NC Hi-Set, manufactured by Nippon Chemiphar Co., Ltd. The quantitative analysis of triglyceride was conducted by means of a triglyceride measuring kit (Triglyceride C-II-Test Wako, manufactured by Wako Junyaku Co., Ltd.).
# Further, the change rate in the following Tables, was calculated by the following equation.
# Change rate(%)=(A-B/A)×100 where A is the amount of serum lipids (mg/dl) of the control group, and B is the amount of serum lipids (mg/dl) of the group to which the therapeutic agent was administered.
# The antihyperlipidemic activity in cholesterol-fed hyperlipidemic rats
# Male S.D. rats weighing 80-90 g (30 days old) were divided into groups of 5 rats each. The test compounds suspended in 0.5% CMC-Na were given to the rats in a daily dose of 0.4 ml per 100 g rat via stomach tube every 10:00 a.m. for 7 or 14 days. Control groups were given an equal volume of the vehicle. […] The total cholesterol, triglyceride and HDL cholesterol in serum were measured. After sacrificed, the livers were excised, washed with physiological saline, blotted on filter paper and weighed. The degree of hepatomegaly was calculated by the following equation.
# Degree of hepatomegaly (%)=(D-C/C)×100 where C is the liver weight (g) per 100 g body weight in the control animal, and D is the liver weight (g) per 100 g body weight in the drug treated animal.
# [3] = tested on: glutathione related enzymes; experiment: Effect on glutathione related enzymes of normal rats (Test 5); type: in vivo, rat (male S.D.); conditions: 300 mg/kg/day, seven days
# Procedure: The activities against serum lipid, the degree of hepatomegaly and the hepatic drug metabolizing systems of normal rats
# Male S.D. rats (6 weeks old) were divided into groups of 5 rats each. The test compounds suspended in 5% gum arabic were given to the rats once a day for seven days in a daily dose of 300 mg/kg. Then, the rats were fasted for one day, blood samples were taken, and the total cholesterol, triglyceride, HDL-cholesterol in the serum were quantitatively analyzed. Further, the liver weight was measured, and the degree of hepatomegaly was determined by comparing the weight ratio per 100 g of the body weight with that of the control group. Furthermore, GOT and GPT values were measured, and the activities of cytochrome P-450 and glutathione related enzymes were also measured. These values were compared with those of the control groups to investigate any abnormality.
# [4] = tested on: Salmonella (TA98, TA100, TA1535 and TA1538); experiment: Mutagenicity test, Salmonella (Test 6); conditions: up to 5000 μg/Plate, absence or presence of S-9 mix of rat liver
# Procedure: The mutagenicity was tested by using Escherichia coli (WP2UVrA) and Salmonella (TA98, TA100, TA1535 and TA1538) in the absence or presence of a drug metabolizing enzymes S-9 mix of rat liver.
compound,measurement,setting,value
"CN1C(=S)SC(c2ccccc2)N(C)C1c1ccccc1 (stereo not drawn) [Compound of the formula I, 3,5-dimethyl-4,6-diphenyl-tetrahydro-2H-1,3,5-thiadiazine-2-thione]","Change rate after 24 hours, Chol",[1]; 150 mg/kg p.o.,-6.0%
same,"Change rate after 24 hours, TG",[1]; 150 mg/kg p.o.,+21.8%
same,Lipid reducing activity (in words),[1]; method A,no lipid reducing activity was observed
same,Hepatomegaly (in words),[2]; 7 or 14 days,no hepatomegaly
same,Lipid reducing and HDL-cholesterol increasing activity (in words),[2]; 7th day,not distinct very much
same,"Change rate, HDL-Chol","[2]; 7th day, 10 mg/kg/day p.o.",-12.7%
same,"Change rate, TG","[2]; 7th day, 10 mg/kg/day p.o.",-13.8%
same,"Change rate, Total-Chol","[2]; 7th day, 10 mg/kg/day p.o.",-3.3%
same,Degree of hepatomegaly,"[2]; 7th day, 10 mg/kg/day p.o.",+4.0%
same,"Serum lipid, HDL-Chol","[2]; 7th day, 10 mg/kg/day p.o.",15.8 mg/dL
same,"Serum lipid, TG","[2]; 7th day, 10 mg/kg/day p.o.",105.9 mg/dL
same,"Serum lipid, Total-Chol","[2]; 7th day, 10 mg/kg/day p.o.",421.7 mg/dL
same,"Change rate, HDL-Chol","[2]; 7th day, 50 mg/kg/day p.o.",0%
same,"Change rate, TG","[2]; 7th day, 50 mg/kg/day p.o.",-15.3%
same,"Change rate, Total-Chol","[2]; 7th day, 50 mg/kg/day p.o.",-33.6%
same,Degree of hepatomegaly,"[2]; 7th day, 50 mg/kg/day p.o.",+2.0%
same,"Serum lipid, HDL-Chol","[2]; 7th day, 50 mg/kg/day p.o.",18.1 mg/dL
same,"Serum lipid, TG","[2]; 7th day, 50 mg/kg/day p.o.",104.0 mg/dL
same,"Serum lipid, Total-Chol","[2]; 7th day, 50 mg/kg/day p.o.",289.8 mg/dL
same,"Change rate, HDL-Chol","[2]; 7th day, 100 mg/kg/day p.o.",+6.1%
same,"Change rate, TG","[2]; 7th day, 100 mg/kg/day p.o.",-24.5%
same,"Change rate, Total-Chol","[2]; 7th day, 100 mg/kg/day p.o.",-32.4%
same,"Serum lipid, HDL-Chol","[2]; 7th day, 100 mg/kg/day p.o.",19.2 mg/dL
same,"Serum lipid, TG","[2]; 7th day, 100 mg/kg/day p.o.",92.7 mg/dL
same,"Serum lipid, Total-Chol","[2]; 7th day, 100 mg/kg/day p.o.",294.7 mg/dL
same,"Change rate, HDL-Chol","[2]; 7th day, 150 mg/kg/day p.o.",-4.4%
same,"Change rate, TG","[2]; 7th day, 150 mg/kg/day p.o.",-46.1%
same,"Change rate, Total-Chol","[2]; 7th day, 150 mg/kg/day p.o.",-11.7%
same,Degree of hepatomegaly,"[2]; 7th day, 150 mg/kg/day p.o.",+12.0%
same,"Serum lipid, HDL-Chol","[2]; 7th day, 150 mg/kg/day p.o.",17.3 mg/dL
same,"Serum lipid, TG","[2]; 7th day, 150 mg/kg/day p.o.",66.2 mg/dL
same,"Serum lipid, Total-Chol","[2]; 7th day, 150 mg/kg/day p.o.",385 mg/dL
same,Lipid reducing and HDL-cholesterol increasing activity (in words),[2]; 14th day,strong lipid reducing activity and HDL-cholesterol increasing activity
same,"Change rate, HDL-Chol","[2]; 14th day, 10 mg/kg/day p.o.",+129.9%
same,"Change rate, TG","[2]; 14th day, 10 mg/kg/day p.o.",-44.6%
same,"Change rate, Total-Chol","[2]; 14th day, 10 mg/kg/day p.o.",-42.5%
same,Degree of hepatomegaly,"[2]; 14th day, 10 mg/kg/day p.o.",+5.3%
same,"Serum lipid, HDL-Chol","[2]; 14th day, 10 mg/kg/day p.o.",20.0 mg/dL
same,"Serum lipid, TG","[2]; 14th day, 10 mg/kg/day p.o.",92.5 mg/dL
same,"Serum lipid, Total-Chol","[2]; 14th day, 10 mg/kg/day p.o.",336.5 mg/dL
same,"Change rate, HDL-Chol","[2]; 14th day, 50 mg/kg/day p.o.",+135.6%
same,"Change rate, TG","[2]; 14th day, 50 mg/kg/day p.o.",-47.5%
same,"Change rate, Total-Chol","[2]; 14th day, 50 mg/kg/day p.o.",-33.5%
same,Degree of hepatomegaly,"[2]; 14th day, 50 mg/kg/day p.o.",+1.8%
same,"Serum lipid, HDL-Chol","[2]; 14th day, 50 mg/kg/day p.o.",20.5 mg/dL
same,"Serum lipid, TG","[2]; 14th day, 50 mg/kg/day p.o.",87.7 mg/dL
same,"Serum lipid, Total-Chol","[2]; 14th day, 50 mg/kg/day p.o.",389.2 mg/dL
same,"Change rate, HDL-Chol","[2]; 14th day, 100 mg/kg/day p.o.",+186.2%
same,"Change rate, TG","[2]; 14th day, 100 mg/kg/day p.o.",-44.8%
same,"Change rate, Total-Chol","[2]; 14th day, 100 mg/kg/day p.o.",-53.7%
same,Degree of hepatomegaly,"[2]; 14th day, 100 mg/kg/day p.o.",+10.5%
same,"Serum lipid, HDL-Chol","[2]; 14th day, 100 mg/kg/day p.o.",24.9 mg/dL
same,"Serum lipid, TG","[2]; 14th day, 100 mg/kg/day p.o.",92.2 mg/dL
same,"Serum lipid, Total-Chol","[2]; 14th day, 100 mg/kg/day p.o.",271.3 mg/dL
same,"Change rate, HDL-Chol","[2]; 14th day, 150 mg/kg/day p.o.",+147.1%
same,"Change rate, TG","[2]; 14th day, 150 mg/kg/day p.o.",-53.8%
same,"Change rate, Total-Chol","[2]; 14th day, 150 mg/kg/day p.o.",-60.9%
same,Degree of hepatomegaly,"[2]; 14th day, 150 mg/kg/day p.o.",+5.3%
same,"Serum lipid, HDL-Chol","[2]; 14th day, 150 mg/kg/day p.o.",21.5 mg/dL
same,"Serum lipid, TG","[2]; 14th day, 150 mg/kg/day p.o.",77.1 mg/dL
same,"Serum lipid, Total-Chol","[2]; 14th day, 150 mg/kg/day p.o.",228.6 mg/dL
same,Abnormalities in activity against glutathione related enzymes (in words),[3],no abnormalities were observed
same,Mutagenicity,[4],did not show any mutagenicity

# — patent US4624950A, “Method for treating atherosclerosis hyperlipidema, lipid deposition on arterial walls, or raising the ratio of high density lipoprotein cholesterol to total cholesterol in serum” (Nissan Chemical Industries Ltd., priority 1983, dated 1986)
